Data reported in patent publication US9096591B2, “Tetracyclic compounds” (Medivation Technologies, Inc., priority 2007, dated 2015).

Experiments:
Details in all cases: percent inhibition of specific binding
[1] = molecular target: T1, human recombinant adrenergic α2A receptor (Homo sapiens, UniProt P08913); assay: Adrenergic α2A radioligand binding ([3H]MK-912); parameters: Inhibition of ligand binding, Adren. alpha2A: concentration or dose not given beside the values
T1 construct: expressed in transfected cells; host or cells: insect Sf9 cells
T1 sequence (P08913 1-465): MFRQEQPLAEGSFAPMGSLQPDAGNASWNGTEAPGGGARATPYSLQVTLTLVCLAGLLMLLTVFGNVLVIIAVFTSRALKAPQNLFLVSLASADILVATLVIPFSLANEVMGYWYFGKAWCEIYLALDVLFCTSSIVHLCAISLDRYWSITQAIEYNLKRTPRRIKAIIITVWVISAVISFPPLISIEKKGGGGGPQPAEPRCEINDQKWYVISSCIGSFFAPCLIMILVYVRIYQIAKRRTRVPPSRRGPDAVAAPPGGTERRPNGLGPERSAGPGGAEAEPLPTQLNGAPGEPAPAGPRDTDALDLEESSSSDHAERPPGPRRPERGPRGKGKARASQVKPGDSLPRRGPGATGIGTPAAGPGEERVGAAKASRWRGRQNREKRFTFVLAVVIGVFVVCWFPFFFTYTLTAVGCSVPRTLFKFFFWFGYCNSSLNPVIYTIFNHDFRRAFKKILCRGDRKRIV
Summary of the method: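 Membranes from Sf9 cells expressing the receptor were incubated with 1 nM [3H]MK-912 for 60 minutes at 25° C in 50 mM Tris-HCl pH 7.4, 12.5 mM MgCl2, 2 mM EDTA. 10 μM WB-4101 defined non-specific binding. Values are percent inhibition of specific bound radioactivity after filtration.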

[2] = molecular target: T2, human recombinant serotonin (5-Hydroxytryptamine) 5-HT6 receptor (Homo sapiens, UniProt P50406); assay: Serotonin 5-HT6 radioligand binding ([3H]LSD); parameters: Inhibition of ligand binding, Ser. 5-HT6: concentration or dose not given beside the values
T2 construct: expressed in transfected cells; host or cells: human HeLa cells
Description: Receptor proteins were filtered and washed, the filters were then counted to determine [3H]LSD specifically bound. […] Biochemical assay results are presented as the percent inhibition of specific binding in Table 6.

[3] = molecular target: T3, Serotonin (5-Hydroxytryptamine) 5-HT7 (Homo sapiens, UniProt P34969); assay: Serotonin 5-HT7 radioligand binding ([3H]LSD); parameters: Inhibition of ligand binding, Ser. 5-HT7: concentration or dose not given beside the values
T3 construct: expressed in transfected cells; host or cells: CHO cells
Experimental: Lysergic acid diethylamide (LSD) for 2 hours at 25° C. […] Receptor proteins were filtered and washed, the filters were then counted to determine [^3H]LSD specifically bound. […] Biochemical assay results are presented as the percent inhibition of specific binding in Table 6.

[4] = molecular target: T4, human recombinant serotonin (5-Hydroxytryptamine) 5-HT2C receptor (Homo sapiens, UniProt P28335); assay: Serotonin 5-HT2C radioligand binding ([3H]Mesulergine); parameters: Inhibition of ligand binding, Ser. 5-HT2C: concentration or dose not given beside the values
T4 construct: expressed in transfected cells; host or cells: CHO-K1 cells
T4 sequence (P28335 33-458): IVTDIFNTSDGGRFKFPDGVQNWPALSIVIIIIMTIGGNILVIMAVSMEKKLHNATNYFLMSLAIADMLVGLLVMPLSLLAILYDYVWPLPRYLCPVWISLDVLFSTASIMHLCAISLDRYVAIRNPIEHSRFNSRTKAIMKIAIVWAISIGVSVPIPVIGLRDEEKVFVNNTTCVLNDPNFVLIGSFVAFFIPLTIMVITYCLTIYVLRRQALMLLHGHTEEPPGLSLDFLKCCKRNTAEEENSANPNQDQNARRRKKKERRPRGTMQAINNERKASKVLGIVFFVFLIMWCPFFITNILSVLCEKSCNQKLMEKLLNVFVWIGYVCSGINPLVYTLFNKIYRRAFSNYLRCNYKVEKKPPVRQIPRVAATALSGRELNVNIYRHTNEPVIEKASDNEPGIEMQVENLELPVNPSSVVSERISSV
Experimental: Compounds of the invention were incubated with 1 nM [^3H]Mesulergine for 60 minutes at 25° C. Non-specific binding was estimated in the presence of 1 μM Mianserin. Receptor proteins were filtered and washed, the filters were then counted to determine [^3H]Mesulergine specifically bound. […] Biochemical assay results are presented as the percent inhibition of specific binding in Table 6.

T3 sequence (P34969 whole entry): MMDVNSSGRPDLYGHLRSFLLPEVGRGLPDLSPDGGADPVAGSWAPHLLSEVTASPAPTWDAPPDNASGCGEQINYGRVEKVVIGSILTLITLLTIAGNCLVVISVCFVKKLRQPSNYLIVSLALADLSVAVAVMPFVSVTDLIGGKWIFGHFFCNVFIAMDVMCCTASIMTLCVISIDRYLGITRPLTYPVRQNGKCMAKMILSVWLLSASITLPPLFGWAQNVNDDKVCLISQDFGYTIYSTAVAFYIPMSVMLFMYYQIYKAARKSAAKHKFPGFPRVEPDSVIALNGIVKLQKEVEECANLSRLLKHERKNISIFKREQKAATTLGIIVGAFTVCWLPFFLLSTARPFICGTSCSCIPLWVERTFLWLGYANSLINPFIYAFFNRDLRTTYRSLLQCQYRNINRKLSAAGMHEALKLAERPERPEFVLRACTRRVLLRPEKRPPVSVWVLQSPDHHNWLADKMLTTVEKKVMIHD
T2 sequence (P50406 whole entry): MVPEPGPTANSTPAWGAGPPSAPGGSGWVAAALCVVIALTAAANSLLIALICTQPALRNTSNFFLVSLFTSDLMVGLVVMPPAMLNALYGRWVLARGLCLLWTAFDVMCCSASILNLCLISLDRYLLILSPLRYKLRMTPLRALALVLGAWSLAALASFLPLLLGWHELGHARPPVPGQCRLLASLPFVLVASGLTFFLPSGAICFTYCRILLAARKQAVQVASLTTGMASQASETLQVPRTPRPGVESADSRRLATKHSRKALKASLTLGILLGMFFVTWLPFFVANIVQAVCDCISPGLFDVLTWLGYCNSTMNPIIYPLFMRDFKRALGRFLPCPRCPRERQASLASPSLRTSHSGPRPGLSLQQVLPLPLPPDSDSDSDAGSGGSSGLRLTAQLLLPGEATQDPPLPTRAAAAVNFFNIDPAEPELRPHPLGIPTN

Structure (SMILES) | Inhibition of ligand binding, Adren. alpha2A [1] [%] | Inhibition of ligand binding, Ser. 5-HT6 [2] [%] | Inhibition of ligand binding, Ser. 5-HT7 [3] [%] | Inhibition of ligand binding, Ser. 5-HT2C [4] [%]
CN1CCc2c(c3ccccc3n2CCc2ccccc2)C1 [Compound 2, 2,3,4,5-tetrahydro-2-methyl-5-phenethyl-1H-pyrido[4,3-b]indole] | 94 | 95 | 100 | 97
Cc1ccc2c(c1)c1c(n2CCc2ccc(C)nc2)CCN(C2CC2)C1 [Compound 51] | 26 | 6 | 17 | 2
Cc1ccc(CCn2c3c(c4cc(C(F)(F)F)ccc42)CN(C)CC3)cn1 [Compound 53] | 18 | 18 | 49 | 12
CN1CCc2c(c3cc(C(F)(F)F)ccc3n2CCc2ccccc2)C1 [Compound 80, 8-(trifluoromethyl)-2,3,4,5-tetrahydro-2-methyl-5-phenethyl-1H-pyrido[4,3-b]indole] | 98 | 101 | 92 | 90
CN1CCc2c(c3c(Cl)cccc3n2CCc2ccccc2)C1 [Compound 81] | 96 | 86 | 89 | 98
CN1CCc2c(c3ccc(Cl)cc3n2CCc2ccccc2)C1 [Compound 82] | 99 | 103 | 100 | 95
CN1CCc2c(c3cc(Cl)ccc3n2CCC2CCCCC2)C1 [Compound 164, 8-chloro-5-(2-cyclohexylethyl)-2,3,4,5-tetrahydro-2-methyl-1H-pyrido[4,3-b]indole] | 95 | 99 | 92 | 95
CN1CCc2c(c3cc(Cl)ccc3n2CCN2CCOCC2)C1 [Compound 186, 8-chloro-2,3,4,5-tetrahydro-2-methyl-5-(2-morpholinoethyl)-1H-pyrido[4,3-b]indole] | 51 | 83 | 57 | 89
CN1CCc2c(c3c(Cl)cccc3n2CCC2CCCCC2)C1 [Compound 187, 9-chloro-5-(2-cyclohexylethyl)-2,3,4,5-tetrahydro-2-methyl-1H-pyrido[4,3-b]indole] | 90 | 53 | 77 | 77
Cc1ccc(CCn2c3c(c4cc(C(C)C)ccc42)CN(C)CC3)cn1 [Compound 392, 8-Isopropyl-2-methyl-5-[2-(6-methyl-pyridin-3-yl)-ethyl]-2,3,4,5-tetrahydro-1H-pyrido[4,3-b]indole] | 89 | 61 | – | 82
Cc1ccc2c(c1)c1c(n2CC(=O)N2Cc3ccccc3C2)CCN(C)C1 [Compound 397, 2-(1,2,3,4-tetrahydro-2,8-dimethylpyrido[4,3-b]indol-5-yl)-1-(isoindolin-2-yl)ethanone] | 16 | −9 | – | 44
Cc1ccc2c(c1)c1c(n2CC(=O)N2CCc3ccccc3C2)CCN(C)C1 [Compound 398, 2-(1,2,3,4-tetrahydro-2,8-dimethylpyrido[4,3-b]indol-5-yl)-1-(3,4-dihydroisoquinolin-2(1H)-yl)ethanone] | 23 | 15 | – | 69
Cc1ccc2c(c1)c1c(n2CC(=O)N2CCSCC2)CCN(C)C1 [Compound 399, 2-(1,2,3,4-tetrahydro-2,8-dimethylpyrido[4,3-b]indol-5-yl)-1-thiomorpholinoethanone] | 16 | −5 | – | 73
Cc1ccc2c(c1)c1c(n2CC(=O)N2CCCC(C)C2)CCN(C)C1 (stereo not drawn) [Compound 401, 2-(1,2,3,4-tetrahydro-2,8-dimethylpyrido[4,3-b]indol-5-yl)-1-(3-methylpiperidin-1-yl)ethanone] | 3 | 1 | – | 39
Cc1ccc(CCn2c3c(c4cc(Cl)ccc42)CN(c2cccc(C(F)(F)F)c2)CC3)cn1 [Compound 403, 8-Chloro-5-[2-(6-methyl-pyridin-3-yl)-ethyl]-2-(3-trifluoromethyl-phenyl)-2,3,4,5-tetrahydro-1H-pyrido[4,3-b]indole] | 30 | 0 | – | 35
CN1CCN(CCn2c3c(c4cc(Cl)ccc42)CN(C)CC3)CC1 [Compound 417, 8-chloro-2,3,4,5-tetrahydro-2-methyl-5-(2-(4-methylpiperazin-1-yl)ethyl)-1H-pyrido[4,3-b]indole] | 28 | 5 | – | 29
CN1CCc2c(c3cc(Cl)ccc3n2CCc2cncnc2)C1 [Compound 424, 8-Chloro-2-methyl-5-(2-pyrimidin-5-yl-ethyl)-2,3,4,5-tetrahydro-1H-pyrido[4,3-b]indole] | 28 | 82 | – | 76
Cc1ccc2c(c1)c1c(n2CCc2cncc(C(F)(F)F)c2)CCN(C)C1 [Compound 425, 5-(2-(5-(trifluoromethyl)pyridin-3-yl)ethyl)-2,3,4,5-tetrahydro-2,8-dimethyl-1H-pyrido[4,3-b]indole] | 49 | 64 | – | 72
CN1CCc2c(c3cc(Cl)ccc3n2CCc2cncc(C(F)(F)F)c2)C1 [Compound 426, 8-chloro-5-(2-(5-(trifluoromethyl)pyridin-3-yl)ethyl)-2,3,4,5-tetrahydro-2-methyl-1H-pyrido[4,3-b]indole] | 42 | 65 | – | 80
Cc1cncc(CCn2c3c(c4cc(C)ccc42)CN(C)CC3)c1 [Compound 429, 2,3,4,5-tetrahydro-2,8-dimethyl-5-(2-(5-methylpyridin-3-yl)ethyl)-1H-pyrido[4,3-b]indole] | 67 | 79 | – | 84
Cc1ccc2c(c1)c1c(n2CC(=O)N2CCN(C)CC2)CCN(C)C1 [Compound 459, 2-(1,2,3,4-tetrahydro-2,8-dimethylpyrido[4,3-b]indol-5-yl)-1-(4-methylpiperazin-1-yl)ethanone] | −9 | −10 | – | 3
